# Experimental data from patent US11479546B2, “Antimalarial hexahydropyrimidine analogues” (UCB Biopharma SRL, priority 2018, dated 2022).
# Experiments:
# [1] = tested on: Plasmodium falciparum 3D7; assay: P. falciparum 3D7 asexual blood stage assay, Assay Procedure Version 1 (SYBR green readout); type: cell-based; conditions: 3D7, Erythrocyte, Version 1 of the assay procedure (no asterisk), 72 h incubation in infected erythrocytes, 10,000 nM to 0.51 nM
# Method: Asexual Blood Stage Assay
# The assay used to measure the effect of test compounds on a bloodstream stage of Plasmodium falciparum 3D7 strain employs SYBR green as the readout. This is a dye that binds to double stranded deoxyribonucleic acid (DNA) with a resulting increase in fluorescence, allowing detection of P. falciparum DNA in infected erythrocytes, and thereby providing a measure of parasite growth and propagation.
# P. falciparum Culture Maintenance
# Erythrocytes (A+blood) were prepared for both parasite culture and assay by washing 4 times with incomplete media (15.9 g RPMI 1640 (25 mM HEPES, L-glutamine), 1 g NaHCO3, 2 g glucose, 400 μL gentacin (500 mg/mL), 2 mL hypoxanthine solution (13.6 g/L in 0.1M NaOH pH 7.3) in 1 litre of media). The cells were centrifuged at 1800 g for 5 minutes, before decanting the supernatant and re-suspending in fresh incomplete media. On the final wash, the cells were re-suspended in complete media (incomplete media with 5 g/L AlbumaxII), and centrifuged at 1800 g for 3 minutes. This cell sediment was treated as 100% haematocrit.
# P. falciparum 3D7 was cultured in erythrocytes at 5% haematocrit in complete media at 37° C. (1% O2, 3% CO2, balance N2). Cultures were split on a weekly basis to achieve a 1% parasitaemia in erythrocites at 5% haematocrit in fresh media. Culture media is replaced by fresh media every other day (2 times during the week).
# Assay Procedure—Version 1
# On day 1, test compounds were added to assay plates using Echo dispensing technology (3 fold dilution and 10 points titration). 50 nL of each compound dilution was added to 50 μL of culture (5% haematocrit, 0.5% parasitaemia) and incubated for 72 h at 37° C. (1% O2, 3% CO2, balance N2). Final concentrations of test compounds ranged from 10,000 nM to 0.51 nM, in […].
# On day 4, 10 μL SYBR green (Invitrogen S7563 supplied as 10,000×concentrate in DMSO) pre-diluted to 3× concentrate with Lysis buffer (20 mM Tris pH 7.9, 5% EDTA, 0.16% w/v, 1.6% TX100 v/v) was added to the cultures and incubated in the dark, overnight, at room temperature.
# On day 5, fluorescent signal was measured using a BioTek plate reader (excitation 485 nm, emission 528 nm). All data were processed using IDBS ActivityBase. Raw data were converted into percent inhibition through linear regression by setting the high inhibition control as 100% and the no inhibition control as 0%. Quality control criteria for passing plates were as follows: Z′>0.5, S:B>3, % CV(no inhibition control)<15. The formula used to calculate Z′ is
# All EC50 curve fitting was undertaken using the following 4 parametric equation:
# [formula] where A=% inhibition at bottom; B=% inhibition at top; C=EC50; D=slope; x=inhibitor concentration; and y=% inhibition. […] Assay Procedure—Version 2
# [2] = tested on: Plasmodium falciparum 3D7; assay: P. falciparum 3D7 asexual blood stage assay, Assay Procedure Version 2 (SYBR green readout); type: cell-based; conditions: Version 2 of the assay procedure (asterisk *), 72 h incubation in infected erythrocytes, 50,000 nM to 15 nM
# In short: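 P. falciparum 3D7 in A+ erythrocytes (5% haematocrit, 0.5% parasitaemia) exposed 72 h at 37 °C (1% O2, 3% CO2) to 20-point 1.5-fold titrations, final 50,000–15 nM in 0.5% DMSO. SYBR green in lysis buffer overnight, fluorescence 485/528 nm; % inhibition vs mefloquine and DMSO controls, EC50 from biphasic two-site fit.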
# [3] = Plasmodium falciparum, 3D7, Erythrocyte, 72 h
"IC50 [2, 3]",SMILES,other results
0.757 µM,"CC(C)Oc1ccccc1Nc1cccc([C@]2(C)CC(=O)N(C3CCOCC3)C(=N)N2)c1Cl [Example 76, (6S)-6-[2-Chloro-3-(2-isopropoxyanilino)phenyl]-2-imino-6-methyl-3-(tetrahydro-pyran-4-yl)hexahydropyrimidin-4-one]",
0.232 µM,"C[C@@]1(c2cccc(Nc3cnc4ccccc4c3C#N)c2Cl)CC(=O)N(C2CCOCC2)C(=N)N1 [Example 89, 3-{2-Chloro-3-[(4S)-2-imino-4-methyl-6-oxo-1-(tetrahydro-pyran-4-yl)hexahydropyrimidin-4-yl]anilino}quinoline-4-carbonitrile]",
2.04 µM,"C[C@@]1(c2cccc(Nc3ccn4ccnc4c3)c2Cl)CC(=O)N(C2CCOCC2)C(=N)N1 [Example 108, (6S)-6-[2-Chloro-3-(imidazo-[1,2-a]pyridin-7-ylamino)-phenyl]-2-imino-6-methyl-3-(tetrahydropyran-4-yl)-hexahydropyrimidin-4-one]",
0.305 µM,"C[C@@]1(c2cccc(Nc3ccc(OC(F)(F)F)nc3)c2Cl)CC(=O)N(C2CCOCC2)C(=N)N1 [Example 45, (6S)-6-(2-Chloro-3-{[6-(trifluoromethoxy)pyridin-3-yl]-amino}phenyl)-2-imino-6-methyl-3-(tetrahydropyran-4-yl)hexahydropyrimidin-4-one]",
0.227 µM,"Cc1cc(Cl)c(Nc2cccc([C@]3(C)CC(=O)N(C4CCOCC4)C(=N)N3)c2Cl)cn1 [Example 110, (6S)-6-{2-Chloro-3-[(4-chloro-6-methylpyridin-3-yl)amino]-phenyl}-2-imino-6-methyl-3-(tetrahydropyran-4-yl)-hexahydropyrimidin-4-one]",
0.37 µM,"C[C@@]1(c2cccc(Nc3cccnc3C#N)c2Cl)CC(=O)N(C2CCOCC2)C(=N)N1 [Example 51, 3-{2-Chloro-3-[(4S)-2-imino-4-methyl-6-oxo-1-(tetrahydro-pyran-4-yl)hexahydropyrimidin-4-yl]anilino}pyridine-2-carbo-nitrile]",
0.466 µM,"C[C@@]1(c2cccc(Nc3ccc(Cl)cn3)c2Cl)CC(=O)N(C2CCOCC2)C(=N)N1 [Example 182, (6S)-6-{2-Chloro-3-[(5-chloro-pyridin-2-yl)amino]phenyl}-2-imino-6-methyl-3-(tetrahydro-yran-4-yl)-hexahydropyrimidin-4-one]",

# Further lines, the compound ahead of its results:
SMILES,"IC50 [2, 3]",other results
"C[C@@]1(c2cccc(Nc3ccc(F)cc3)c2Cl)CC(=O)N(CC2CCOCC2)C(=N)N1 (single isomer, unassigned) [Example 170, (6S*)-6-[2-Chloro-3-(4-fluoro-anilino)phenyl]-2-imino-6-methyl-3-(tetrahydropyran-4-ylmethyl)hexahydropyrimidin-4-one]",,IC50 [1]: 0.492 µM
"C[C@@]1(c2cccc(Nc3ccccc3)c2Cl)CC(=O)N(C2CCCCC2)C(=N)N1 [Example 4, (6S)-6-(3-Anilino-2-chloro-phenyl)-3-cyclohexyl-2-imino-6-methylhexahydropyrimidin-4-one]",,IC50 [1]: 0.075 µM
"COc1ccc(F)cc1Nc1cccc([C@]2(C)CC(=O)N(C3CCOCC3)C(=N)N2)c1Cl [Example 27, (6S)-6-[2-Chloro-3-(5-fluoro-2-methoxyanilino)phenyl]-2-imino-6-methyl-3-(tetrahydro-pyran-4-yl)hexahydropyrimidin-4-one]",,IC50 [1]: 0.236 µM
"C[C@@]1(c2cccc(Nc3cccnc3C(F)(F)F)c2Cl)CC(=O)N(C2CCOCC2)C(=N)N1 [Example 26, (6S)-6-(2-Chloro-3-{[2-(trifluoromethyl)pyridin-3-yl]amino}phenyl)-2-imino-6-methyl-3-(tetrahydropyran-4-yl)hexahydropyrimidin-4-one]",,IC50 [1]: 0.331 µM
"Cc1ncc(Nc2cccc([C@]3(C)CC(=O)N(C4CCOCC4)C(=N)N3)c2Cl)cn1 [Example 19, (6S)-6-{2-Chloro-3-[(2-methyl-pyrimidin-5-yl)amino]phenyl}-2-imino-6-methyl-3-(tetrahydro-pyran-4-yl)hexahydropyrimidin-4-one]",,IC50 [1]: 0.996 µM
"C[C@@]1(c2cccc(Nc3cccc(-c4ccno4)c3)c2Cl)CC(=O)N(C2CCOCC2)C(=N)N1 [Example 61, (6S)-6-{2-Chloro-3-[3-(isoxazol-5-yl)anilino]phenyl}-2-imino-6-methyl-3-(tetrahydro-pyran-4-yl)hexahydropyrimidin-4-one]",0.753 µM,
"C[C@@]1(c2cccc(Nc3ccc(OC(F)F)nc3)c2Cl)CC(=O)N([C@@H]2C[C@H]3CC[C@@H](C2)O3)C(=N)N1 (mixture of isomers) [Example 156, (6S)-6-(2-Chloro-3-{[6-(difluoromethoxy)pyridin-3-yl]-amino}phenyl)-2-imino-6-methyl-3-[(1SR,5RS)-8-oxa-bicyclo[3.2.1]octan-3-yl]-hexahydropyrimidin-4-one]",2.98 µM,
"C[C@@]1(c2cccc(Nc3ccc(C#N)cc3OC(F)F)c2Cl)CC(=O)N(C2CCOCC2)C(=N)N1 [Example 96, 4-{2-Chloro-3-[(4S)-2-imino-4-methyl-6-oxo-1-(tetrahydro-pyran-4-yl)hexahydropyrimidin-4-yl]anilino}-3-(difluoro-methoxy)benzonitrile]",0.195 µM,
"Cc1ccc(Nc2cccc([C@]3(C)CC(=O)N(C4CCOC(C)(C)C4)C(=N)N3)c2Cl)cn1 (single isomer, unassigned) [Example 146, (6S)-6-{2-Chloro-3-[(6-methyl-pyridin-3-yl)amino]phenyl}-3-[(4S*)-2,2-dimethyltetrahydro-pyran-4-yl]-2-imino-6-methyl-hexahydropyrimidin-4-one]",,IC50 [2]: 0.425 µM
"CC1(C)CC(N2C(=N)N[C@](C)(c3cccc(Nc4ccc(OC(F)F)nc4)c3Cl)CC2=O)CCO1 (single isomer, unassigned) [Example 143, (6S)-6-(2-Chloro-3-{[6-(difluoromethoxy)pyridin-3-yl]-amino}phenyl)-3-[(4R*)-2,2-dimethyltetrahydropyran-4-yl]-2-imino-6-methylhexahydro-pyrimidin-4-one]",,IC50 [2]: 0.996 µM
"CC(C)Oc1cccc(Nc2cccc([C@]3(C)CC(=O)N(C4CCOCC4)C(=N)N3)c2Cl)c1 [Example 74, (6S)-6-[2-Chloro-3-(3-isopropoxyanilino)phenyl]-2-imino-6-methyl-3-(tetrahydro-pyran-4-yl)hexahydropyrimidin-4-one]",1.29 µM,
"C[C@@]1(c2cccc(Nc3ccc(N4CCC4)nc3)c2Cl)CC(=O)N(C2CCOCC2)C(=N)N1 [Example 113, (6S)-6-(3-{[6-(Azetidin-1-yl)-pyridin-3-yl]amino}-2-chloro-phenyl)-2-imino-6-methyl-3-(tetrahydropyran-4-yl)-hexahydropyrimidin-4-one]",0.225 µM,
"C[C@@]1(c2cccc(Nc3cccc(-c4ccccc4)c3)c2Cl)CC(=O)N(C2CCOCC2)C(=N)N1 [Example 58, (6S)-6-[2-Chloro-3-(3-phenyl-anilino)phenyl]-2-imino-6-methyl-3-(tetrahydropyran-4-yl)hexahydropyrimidin-4-one]",1.63 µM,
"Cc1ccc(Nc2cccc([C@]3(C)CC(=O)N([C@H]4C[C@@](O)(C(F)(F)F)C4)C(=N)N3)c2Cl)cn1 [Example 153, (6S)-6-{2-Chloro-3-[(6-methyl-pyridin-3-yl)amino]phenyl}-3-[3-hydroxy-3-(trifluoromethyl)-cyclobutyl]-2-imino-6-methyl-hexahydropyrimidin-4-one (trans isomer)]",3.22 µM,
"CC(C)(C)c1ncc(Nc2cccc([C@]3(C)CC(=O)N(C4CCC(F)(F)CC4)C(=N)N3)c2Cl)cn1 [Example 141, (6S)-6-{3-[(2-tert-Butyl-pyrimidin-5-yl)amino]-2-chloro-phenyl]-3-(4,4-difluoro-cyclohexyl)-2-imino-6-methyl-hexahydropyrimidin-4-one]",0.18 µM,
